Laboratory results from the NIST ThermoML archive (doi:10.1021/je900284z).
Where “and” joins values, the source holds several entries; their conditions need not be identical. Equal entries are not always repeated. Numbers after ± are expanded uncertainties.

Settings: Liquid; for viscosity: Falling or rolling sphere viscometry; for mass density: 101.33 kPa

## CC(C)CCCC(C)CCCC(C)CCCCC(C)CCCC(C)CCCC(C)C (stereo not given) [2,6,10,15,19,23-hexamethyltetracosane]
273.15 K, 100 kPa
  viscosity: 116 ± 3.9 mPa·s and 116.2 ± 3.9 mPa·s
273.15 K
  mass density: 821.58 ± 0.54 kg/m3
273.15 K, 600 kPa
  viscosity: 121.9 ± 4.2 mPa·s
273.15 K, 10600 kPa
  viscosity: 159.6 ± 6.6 mPa·s
273.15 K, 20600 kPa
  viscosity: 208 ± 10 mPa·s
273.15 K, 30700 kPa
  viscosity: 267.6 ± 15 mPa·s
273.15 K, 41400 kPa
  viscosity: 348.4 ± 23 mPa·s
273.15 K, 50500 kPa
  viscosity: 442.3 ± 33 mPa·s
283.15 K, 100 kPa
  viscosity: 59.25 ± 1.3 mPa·s and 59.27 ± 1.3 mPa·s
283.15 K
  mass density: 815.16 ± 0.55 kg/m3
283.15 K, 9600 kPa
  viscosity: 76.31 ± 1.9 mPa·s
283.15 K, 19900 kPa
  viscosity: 97.69 ± 2.9 mPa·s
283.15 K, 25810 kPa
  viscosity: 115.2 ± 3.8 mPa·s
283.15 K, 50880 kPa
  viscosity: 206.5 ± 10 mPa·s
283.15 K, 76760 kPa
  viscosity: 360.6 ± 24 mPa·s
283.15 K, 100400 kPa
  viscosity: 573.5 ± 47 mPa·s
288.15 K
  mass density: 811.95 ± 0.55 kg/m3
293.15 K, 100 kPa
  viscosity: 35.97 ± 0.8 mPa·s and 35.96 ± 0.8 mPa·s
293.15 K
  mass density: 808.74 ± 0.56 kg/m3
298.15 K, 100 kPa
  viscosity: 28.45 ± 0.63 mPa·s [middle of 6 runs]
298.15 K
  mass density: 805.55 ± 0.56 kg/m3
298.15 K, 700 kPa
  viscosity: 28.57 ± 0.63 mPa·s
298.15 K, 800 kPa
  viscosity: 28.67 ± 0.64 mPa·s
298.15 K, 10800 kPa
  viscosity: 35.77 ± 0.8 mPa·s
298.15 K, 20600 kPa
  viscosity: 44.2 ± 0.98 mPa·s
298.15 K, 26000 kPa
  viscosity: 49.37 ± 1.1 mPa·s
298.15 K, 30800 kPa
  viscosity: 54.49 ± 1.2 mPa·s
298.15 K, 40200 kPa
  viscosity: 65.84 ± 1.5 mPa·s
298.15 K, 50100 kPa
  viscosity: 80.08 ± 2.1 mPa·s
298.15 K, 50600 kPa
  viscosity: 81.24 ± 2.1 mPa·s
298.15 K, 51600 kPa
  viscosity: 84.03 ± 2.2 mPa·s
298.15 K, 60700 kPa
  viscosity: 98.21 ± 2.9 mPa·s
298.15 K, 70700 kPa
  viscosity: 118.8 ± 4 mPa·s
298.15 K, 74700 kPa
  viscosity: 129.5 ± 4.7 mPa·s
298.15 K, 75800 kPa
  viscosity: 130.3 ± 4.7 mPa·s
298.15 K, 80500 kPa
  viscosity: 142.3 ± 5.5 mPa·s
298.15 K, 98800 kPa
  viscosity: 200.7 ± 9.6 mPa·s
298.15 K, 100100 kPa
  viscosity: 201.8 ± 9.7 mPa·s
298.15 K, 125900 kPa
  viscosity: 315.8 ± 20 mPa·s
298.15 K, 150000 kPa
  viscosity: 465.7 ± 35 mPa·s
298.15 K, 150100 kPa
  viscosity: 473.5 ± 36 mPa·s
303.15 K, 100 kPa
  viscosity: 22.58 ± 0.5 mPa·s and 22.86 ± 0.51 mPa·s and 22.84 ± 0.51 mPa·s
303.15 K
  mass density: 802.34 ± 0.57 kg/m3
313.15 K, 100 kPa
  viscosity: 15.16 ± 0.34 mPa·s [middle of 6 runs]
313.15 K
  mass density: 795.93 ± 0.58 kg/m3
313.15 K, 800 kPa
  viscosity: 15.15 ± 0.34 mPa·s
313.15 K, 10700 kPa
  viscosity: 18.58 ± 0.41 mPa·s
313.15 K, 20600 kPa
  viscosity: 22.64 ± 0.5 mPa·s
313.15 K, 30700 kPa
  viscosity: 27.33 ± 0.61 mPa·s
313.15 K, 40500 kPa
  viscosity: 32.69 ± 0.73 mPa·s
313.15 K, 50200 kPa
  viscosity: 39.01 ± 0.87 mPa·s
313.15 K, 60600 kPa
  viscosity: 46.76 ± 1 mPa·s
313.15 K, 70600 kPa
  viscosity: 55.53 ± 1.2 mPa·s
313.15 K, 80600 kPa
  viscosity: 65.68 ± 1.5 mPa·s
313.15 K, 91700 kPa
  viscosity: 78.58 ± 2 mPa·s
313.15 K, 112400 kPa
  viscosity: 108.9 ± 3.5 mPa·s
313.15 K, 131700 kPa
  viscosity: 145.3 ± 5.7 mPa·s
313.15 K, 151600 kPa
  viscosity: 192.8 ± 9 mPa·s
313.15 K, 151900 kPa
  viscosity: 196.8 ± 9.3 mPa·s
313.15 K, 168600 kPa
  viscosity: 250 ± 14 mPa·s
313.15 K, 175400 kPa
  viscosity: 276.7 ± 16 mPa·s
313.15 K, 190000 kPa
  viscosity: 336.9 ± 22 mPa·s
313.15 K, 190100 kPa
  viscosity: 340.1 ± 22 mPa·s
313.15 K, 199800 kPa
  viscosity: 379.2 ± 26 mPa·s
313.15 K, 210400 kPa
  viscosity: 433.8 ± 32 mPa·s
313.15 K, 227900 kPa
  viscosity: 549.9 ± 45 mPa·s
313.15 K, 241700 kPa
  viscosity: 669.3 ± 59 mPa·s
313.15 K, 261500 kPa
  viscosity: 863.8 ± 83 mPa·s
313.15 K, 279800 kPa
  viscosity: 1065 ± 110 mPa·s
313.15 K, 300500 kPa
  viscosity: 1395 ± 160 mPa·s
323.15 K, 100 kPa
  viscosity: 10.73 ± 0.24 mPa·s and 10.71 ± 0.24 mPa·s and 10.69 ± 0.24 mPa·s
323.15 K
  mass density: 789.53 ± 0.58 kg/m3
333.15 K, 100 kPa
  viscosity: 7.856 ± 0.17 mPa·s and 7.861 ± 0.17 mPa·s
333.15 K
  mass density: 783.14 ± 0.59 kg/m3
338.15 K, 100 kPa
  viscosity: 6.785 ± 0.15 mPa·s
338.15 K, 9700 kPa
  viscosity: 8.064 ± 0.18 mPa·s
338.15 K, 22100 kPa
  viscosity: 9.958 ± 0.22 mPa·s
338.15 K, 30100 kPa
  viscosity: 11.36 ± 0.25 mPa·s
338.15 K, 40600 kPa
  viscosity: 13.4 ± 0.3 mPa·s
338.15 K, 40800 kPa
  viscosity: 13.45 ± 0.3 mPa·s
338.15 K, 50300 kPa
  viscosity: 15.55 ± 0.34 mPa·s
338.15 K, 60000 kPa
  viscosity: 17.98 ± 0.4 mPa·s
338.15 K, 60700 kPa
  viscosity: 17.92 ± 0.4 mPa·s
338.15 K, 80700 kPa
  viscosity: 24.24 ± 0.54 mPa·s
338.15 K, 100600 kPa
  viscosity: 32.02 ± 0.71 mPa·s
338.15 K, 120400 kPa
  viscosity: 41.62 ± 0.92 mPa·s
338.15 K, 140400 kPa
  viscosity: 53.67 ± 1.1 mPa·s
338.15 K, 160300 kPa
  viscosity: 69.03 ± 1.6 mPa·s
338.15 K, 175300 kPa
  viscosity: 82.43 ± 2.1 mPa·s
338.15 K, 199800 kPa
  viscosity: 111 ± 3.6 mPa·s
338.15 K, 226500 kPa
  viscosity: 150.6 ± 6 mPa·s
338.15 K, 246000 kPa
  viscosity: 184.6 ± 8.4 mPa·s
338.15 K, 255100 kPa
  viscosity: 201.5 ± 9.6 mPa·s
338.15 K, 274800 kPa
  viscosity: 252.5 ± 14 mPa·s
338.15 K, 275200 kPa
  viscosity: 246.9 ± 13 mPa·s
338.15 K, 300000 kPa
  viscosity: 321.5 ± 20 mPa·s
338.15 K, 303600 kPa
  viscosity: 337.4 ± 22 mPa·s
338.15 K, 324900 kPa
  viscosity: 416.3 ± 30 mPa·s
338.15 K, 350600 kPa
  viscosity: 540.2 ± 44 mPa·s
338.15 K, 373000 kPa
  viscosity: 677.2 ± 60 mPa·s
343.15 K, 100 kPa
  viscosity: 5.979 ± 0.13 mPa·s [middle of 4 runs]
343.15 K
  mass density: 776.77 ± 0.6 kg/m3
348.15 K, 100 kPa
  viscosity: 5.281 ± 0.12 mPa·s and 5.28 ± 0.12 mPa·s and 5.248 ± 0.12 mPa·s
348.15 K, 9700 kPa
  viscosity: 6.195 ± 0.14 mPa·s
348.15 K, 20600 kPa
  viscosity: 7.41 ± 0.16 mPa·s
348.15 K, 30800 kPa
  viscosity: 8.689 ± 0.19 mPa·s
348.15 K, 40900 kPa
  viscosity: 10.14 ± 0.22 mPa·s
348.15 K, 50400 kPa
  viscosity: 11.63 ± 0.26 mPa·s
348.15 K, 60400 kPa
  viscosity: 13.25 ± 0.29 mPa·s
348.15 K, 60500 kPa
  viscosity: 13.45 ± 0.3 mPa·s
348.15 K, 70300 kPa
  viscosity: 15.23 ± 0.34 mPa·s
348.15 K, 70900 kPa
  viscosity: 15.5 ± 0.34 mPa·s
348.15 K, 80100 kPa
  viscosity: 17.89 ± 0.4 mPa·s
348.15 K, 80300 kPa
  viscosity: 17.39 ± 0.39 mPa·s
348.15 K, 90300 kPa
  viscosity: 19.95 ± 0.44 mPa·s
348.15 K, 90600 kPa
  viscosity: 20.48 ± 0.45 mPa·s
348.15 K, 100100 kPa
  viscosity: 22.65 ± 0.5 mPa·s
348.15 K, 100800 kPa
  viscosity: 23.18 ± 0.51 mPa·s
348.15 K, 200500 kPa
  viscosity: 71.69 ± 1.7 mPa·s
348.15 K, 225500 kPa
  viscosity: 93.81 ± 2.7 mPa·s
348.15 K, 250300 kPa
  viscosity: 121.8 ± 4.2 mPa·s
348.15 K, 275300 kPa
  viscosity: 157.1 ± 6.4 mPa·s
348.15 K, 300000 kPa
  viscosity: 201.5 ± 9.6 mPa·s
348.15 K, 319700 kPa
  viscosity: 244.4 ± 13 mPa·s
348.15 K, 339600 kPa
  viscosity: 295.8 ± 18 mPa·s
348.15 K, 359000 kPa
  viscosity: 356.2 ± 24 mPa·s
348.15 K, 378600 kPa
  viscosity: 428.5 ± 31 mPa·s
353.15 K, 100 kPa
  viscosity: 4.692 ± 0.1 mPa·s and 4.695 ± 0.1 mPa·s
353.15 K
  mass density: 770.42 ± 0.61 kg/m3
363.15 K
  mass density: 764.06 ± 0.62 kg/m3
